Measurements: patent publication US12673936B2, “Isoindolinone compounds, and uses thereof” (HANGZHOU GLUBIO PHARMACEUTICAL CO., LTD., priority 2021, dated 2026)
Read-outs that look alike come from different tables or passages of the source.

Columns and labels:
Format in all cases: cell-based
MV4-11 cells = assay: MV4-11 cell proliferation assay (CTG cell viability); settings: 120 hours, read-out: CTG cell viability assay_MV4-11: IC50
Description: MV4-11 Cell Proliferation Assay
The following is an example of an assay that can be used to determine the dose-dependent, anti-proliferative activity of CK1α degradating compounds in an AML cell line such as MV4-11 (ATCC Cat #CRL-9591).
(§1) MV4-11 cells were seeded into a 384-well plate (Cat #3764, Corning) pre-spotted with DMSO or test compounds. Increasing concentrations of test compounds (ranging from 1×10^−3 μM to 10 μM at a 3.162-fold increment in a 10-point dose response assay; ranging from 3.162×10^−4 μM to 10 μM at a 3.162-fold increment in a 11-point dose response assay) or DMSO were dispensed into an empty 384-well plate using an a D300e digital dispenser (Tecan) or an Echo Acoustic Liquid Handler (Beckman Coulter). About 2,000 cells in 50 μL of culture media (IMDM plus 10% heat-inactivated FBS) were seeded per well. Assay plates were incubated at 37° C. with 5% CO2 for 120 hours. After that, 20 μL of the CellTiter-Glo Luminescent Cell Viability Assay Reagent (Cat #G7573, Promega) was added to each well and incubated at room temperature for 30 minutes. Luminescence was then measured with an EnVision plate reader (PerkinElmer) or a PHERAstar plate reader (BMG LABTECH). All cell growth inhibition curves were processed using Collaborative Drug Discovery Vault softwares (Burlingame, CA, www.collaborativedrug.com).
Cell viability reads in compound-treated wells were normalized to that of DMSO control and expressed as Percent of Control (PoC, y). A four Parameter Logistic Model was used to determine the compound's EC50 and DC50, using the following equation:
[formula] • A==lowest cell viability read normalized to DMSO control in response to compound treatment, as determined by curve fit • B=cell viability read in DMSO control • C=EC50 • D=Hill Slope • x=compound concentration • EC50=the concentration of compound when y=(B−A)/2 • IC50=the concentration of the compound when y=50% of DMSO control • y=cell viability read normalized to DMSO control Ymin=(A/B)*100% • Ymin represents the lowest cell viability % that can be achieved by the compound treatment in the assay.

HiBiT tagged CK1α = HiBiT tagged CK1α (Homo sapiens, UniProt P48729+Q96SW2); assay: CK1α degradation assay (HiBiT assay); settings: 20 hours; for Dmax: HT-1080, HT-1080 cells; for DC50: concentration at 50% CK1α degradation
Method in brief: (§2)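 HT-1080 cells stably expressing wild-type CRBN, GSPT1A(1-138)/G575N and HiBiT-tagged CK1α or GSPT1, ~10,000/well, treated with compound from 3.162×10^-4 μM to 10 μM (3.16-fold steps). HiBiT luminescence normalized to DMSO as percent of control.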

HiBiT tagged GSPT1 = HiBiT tagged GSPT1 (Homo sapiens, UniProt P15170+Q96SW2); assay: GSPT1 degradation assay (HiBiT assay); settings: 20 hours, maximum GSPT1 degradation; for Dmax: HT-1080, HT-1080 cells
Method in brief: as §2

[1] = KG-1a cell proliferation assay (CTG cell viability, counter screen for GSPT1-mediated cytotoxicity); settings: human, KG-1a cells (AML cell line harboring p53 mutation), lowest cell viability, highest concentration 10 μM, read-out: CTG cell viability assay KG1a: Ymin
From the text: (§3) KG-1a Cell Proliferation Assay
(§4) On the other hand, most AML cell lines were reported to be sensitive to GSPT1 degradation induced by CC-885 or CC-90009 regardless of their p53 mutational status (Matyskiela et al., Nature (2016) 535:252-257; Surka et al., Blood (2021) 137 (5): 661-677). Because the subtle to moderate degradation of GSPT1 induced by CK1α degraders with mild activity towards GSPT1 might still result in toxicity in human, a counter screen using an AML cell line harboring p53 mutation such as KG-1a (ATCC Cat #CCL-246.1), was performed to determine the GSPT1-mediated cytotoxicity in vitro.
as §1, with “The following is an example of an assay that can be used to determine the potential GSPT1-dependent cytotoxcity of test compounds that degrade GSPT1. KG-1a cells” for “MV4-11 cells”, “[…]” for “1×10^−3 μM”, “[…]” for “3.162×10^−4 μM”, “with” for “with an”, “EnVision Multimode Plate Reader” for “EnVision plate reader”, “www.collaborativedrug.com). Cell viability reads in compound-treated wells were normalized to that of DMSO control and expressed as Percent of Control (PoC, y). A four Parameter Logistic Model was used to determine the compound's EC50 and DC50, using the following equation: […]” for “www.collaborativedrug.com).”

KG-1a cells = assay: as above; settings: 120 hours, lowest cell viability, highest concentration 10 μM
From the text: as §3, §4
as §1, with “The following is an example of an assay that can be used to determine the potential GSPT1-dependent cytotoxcity of test compounds that degrade GSPT1. KG-1a cells” for “MV4-11 cells”, “[…]” for “1×10^−3 μM”, “[…]” for “3.162×10^−4 μM”, “with” for “with an”, “EnVision Multimode Plate Reader” for “EnVision plate reader”, “www.collaborativedrug.com). Cell viability reads in compound-treated wells were normalized to that of DMSO control and expressed as Percent of Control (PoC, y). A four Parameter Logistic Model was used to determine the compound's EC50 and DC50, using the following equation: […]” for “www.collaborativedrug.com).”

Sequence of HiBiT tagged GSPT1 (P15170 whole entry): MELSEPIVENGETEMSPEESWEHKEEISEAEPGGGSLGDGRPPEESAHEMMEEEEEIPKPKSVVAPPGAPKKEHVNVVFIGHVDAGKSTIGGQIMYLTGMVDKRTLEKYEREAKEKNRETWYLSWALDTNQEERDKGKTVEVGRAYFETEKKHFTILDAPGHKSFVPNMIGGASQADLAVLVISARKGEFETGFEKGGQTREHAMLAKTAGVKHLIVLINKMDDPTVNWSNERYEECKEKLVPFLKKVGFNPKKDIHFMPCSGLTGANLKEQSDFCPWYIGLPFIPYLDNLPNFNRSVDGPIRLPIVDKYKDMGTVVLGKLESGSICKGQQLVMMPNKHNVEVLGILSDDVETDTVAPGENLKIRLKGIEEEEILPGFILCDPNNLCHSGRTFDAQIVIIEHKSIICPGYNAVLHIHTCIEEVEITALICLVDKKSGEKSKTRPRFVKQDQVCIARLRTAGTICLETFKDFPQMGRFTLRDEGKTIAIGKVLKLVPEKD
Sequence of HiBiT tagged GSPT1 (Q96SW2 whole entry): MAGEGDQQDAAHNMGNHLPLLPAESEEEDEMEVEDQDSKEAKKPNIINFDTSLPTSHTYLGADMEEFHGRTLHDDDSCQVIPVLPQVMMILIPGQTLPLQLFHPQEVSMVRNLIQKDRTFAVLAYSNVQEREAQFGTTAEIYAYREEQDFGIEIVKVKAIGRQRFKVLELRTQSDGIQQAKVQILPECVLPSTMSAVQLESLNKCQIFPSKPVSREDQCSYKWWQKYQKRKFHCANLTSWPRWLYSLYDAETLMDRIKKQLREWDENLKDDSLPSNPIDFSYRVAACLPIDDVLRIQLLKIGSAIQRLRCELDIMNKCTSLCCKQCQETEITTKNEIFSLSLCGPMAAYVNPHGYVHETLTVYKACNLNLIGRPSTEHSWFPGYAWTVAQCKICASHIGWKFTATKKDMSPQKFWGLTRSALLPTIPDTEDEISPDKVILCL
Sequence of HiBiT tagged GSPT1 (Q16531 whole entry partner): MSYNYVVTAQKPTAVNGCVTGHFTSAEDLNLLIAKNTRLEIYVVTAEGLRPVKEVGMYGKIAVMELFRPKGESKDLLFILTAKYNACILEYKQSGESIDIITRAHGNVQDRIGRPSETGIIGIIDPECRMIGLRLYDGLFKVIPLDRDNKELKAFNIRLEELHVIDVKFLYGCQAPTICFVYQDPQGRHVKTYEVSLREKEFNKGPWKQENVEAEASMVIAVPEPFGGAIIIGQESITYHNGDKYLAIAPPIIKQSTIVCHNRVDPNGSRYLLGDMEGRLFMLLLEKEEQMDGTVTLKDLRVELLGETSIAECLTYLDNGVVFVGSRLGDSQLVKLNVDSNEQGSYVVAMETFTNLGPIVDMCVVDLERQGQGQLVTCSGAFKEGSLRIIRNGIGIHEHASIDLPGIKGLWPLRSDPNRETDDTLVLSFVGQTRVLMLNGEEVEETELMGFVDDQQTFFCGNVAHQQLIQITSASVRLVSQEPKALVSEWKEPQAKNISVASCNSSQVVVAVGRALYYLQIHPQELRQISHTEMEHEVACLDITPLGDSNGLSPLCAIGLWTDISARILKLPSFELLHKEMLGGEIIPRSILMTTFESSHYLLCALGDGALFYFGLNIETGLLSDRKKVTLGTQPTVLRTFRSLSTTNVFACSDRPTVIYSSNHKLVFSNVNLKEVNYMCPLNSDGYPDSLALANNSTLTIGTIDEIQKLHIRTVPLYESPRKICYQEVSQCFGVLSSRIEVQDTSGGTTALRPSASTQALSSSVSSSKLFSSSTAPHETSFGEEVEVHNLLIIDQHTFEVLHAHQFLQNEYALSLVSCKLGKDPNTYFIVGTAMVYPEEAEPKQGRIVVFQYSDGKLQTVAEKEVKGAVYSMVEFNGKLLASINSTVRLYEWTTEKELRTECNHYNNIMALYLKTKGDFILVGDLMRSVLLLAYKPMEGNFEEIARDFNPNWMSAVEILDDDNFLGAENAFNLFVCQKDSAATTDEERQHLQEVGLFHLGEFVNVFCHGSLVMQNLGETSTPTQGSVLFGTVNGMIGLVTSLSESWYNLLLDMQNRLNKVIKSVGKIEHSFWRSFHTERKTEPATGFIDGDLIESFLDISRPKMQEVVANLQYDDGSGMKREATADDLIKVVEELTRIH
Sequence of HiBiT tagged CK1α (P48729 whole entry): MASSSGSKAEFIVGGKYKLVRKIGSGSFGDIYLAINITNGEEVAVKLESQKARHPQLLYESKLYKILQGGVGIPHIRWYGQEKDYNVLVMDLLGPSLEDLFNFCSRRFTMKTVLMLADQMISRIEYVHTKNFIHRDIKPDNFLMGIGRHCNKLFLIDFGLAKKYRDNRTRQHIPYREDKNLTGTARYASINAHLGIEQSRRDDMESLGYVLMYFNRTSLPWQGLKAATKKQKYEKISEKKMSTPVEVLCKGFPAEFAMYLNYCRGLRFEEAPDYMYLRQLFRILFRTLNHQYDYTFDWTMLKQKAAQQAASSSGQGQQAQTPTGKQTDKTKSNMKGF
Sequence of HiBiT tagged CK1α (Q96SW2 whole entry): as the sequence (Q96SW2 whole entry) above
Sequence of HiBiT tagged CK1α (Q16531 whole entry partner): as the sequence (Q16531 whole entry partner) above

Compound | IC50 (MV4-11 cells; Homo sapiens) [nM] | Dmax (HiBiT tagged CK1α; maximum CK1α degradation) [%] | DC50 (HiBiT tagged CK1α; HT-1080 cells) [nM] | Dmax (HiBiT tagged GSPT1) [%] | viability at 120 h, 10 µM [1] [%] | IC50 (MV4-11 cells) [nM] | HiBiT CK1α: Dmax (HiBiT tagged CK1α; HT-1080 cells, maximum CK1α degradation) [%] | HiBiT GSPT1: Dmax (HiBiT tagged GSPT1; HT-1080 cells) [%] | CTG cell viability assay KG1a: Ymin (KG-1a cells) [%]
O=C1CCC(N2Cc3cc(C(=O)N[C@H](c4ccc(Cl)cc4)C4CC(F)(F)C4)ccc3C2=O)C(=O)N1 (stereo in doubt) [Compound 35, N-((*S)-(4-chlorophenyl)(3,3-difluorocyclobutyl)methyl)-2-(2,6-dioxopiperidin-3-yl)-1-oxoisoindoline-5-carboxamide] | 198 | 67 | 94.7 | 14.8 | 92.1 | – | – | – | –
O=C1CCC(N2Cc3cc(C(=O)N[C@H](c4ccc(F)cc4)C4CCC4)ccc3C2=O)C(=O)N1 (stereo in doubt) [Compound 7, N—((*S)-cyclobutyl(4-fluorophenyl)methyl)-2-(2,6-dioxopiperidin-3-yl)-1-oxoisoindoline-5-carboxamide] | – | – | 81.7 | – | – | 112 | 71.8 | 28.6 | 91.7
O=C1CCC(N2Cc3cc(C(=O)NC(c4ccc(F)cc4)C4CC(F)(F)C4)ccc3C2=O)C(=O)N1 (stereo not drawn) [Compound 4, N-((3,3-difluorocyclobutyl)(4-fluorophenyl)methyl)-2-(2,6-dioxopiperidin-3-yl)-1-oxoisoindoline-5-carboxamide] | 262 | 63.4 | 183 | 31.1 | 90.9 | – | – | – | –
